One experiment concerns advanced-stage SCLC. The settings on record: cisplatin/etoposide with or without vismodegib, first line; cited from earlier work.
The test system of another experiment is Shh gene expression. The experiment is described as follows: Shh gene expression by qPCR in drug-treated A549 cells. It is filed as cell-based, human. The settings on record: post-GDC0449 treatment, 20 μM and 40 μM.
Experiment [1] concerns A549 cells. The experiment can be described thus: Tumor formation after inoculation of GDC0449 pre-treated A549 cells. It is filed as in vivo, nude mice. The note with it: A549 cells pre-treated with 40 μM GDC0449, 1 million cells subcutaneous, versus DMSO pre-treated.
From the text: Then, nude mice were inoculated (sub-cutaneous) with 1 million treated cells (still adherent to the culture flask after treatment with GDC0449). […] Then, nude mice were inoculated subcutaneously with 1 million treated cells (still adherent to the culture flask after treatment with GDC0449).
The test system of the next experiment is Shh+ cells (A549). The experiment is described as follows: Shh rate by flow cytometry in drug-treated A549 cells. It is filed as cell-based, human. How it is done:
FACS (1:40). The secondary antibody was a donkey anti-mouse FITC-linked antibody (ab97029, 1:100, Abcam). For cell analysis after treatment assays (chemotherapy or GDC0449), a dead cell marker (SytoxRed, Invitrogen) was also used. For human fresh samples, an anti-CD45 APC-linked antibody (ab28106, 1:100, Abcam), and a dead cells marker (SytoxRed, Invitrogen) were added. For staining of stable transfected cell lines, mouse anti-HA antibody (Abcam, 1:100) and rabbit anti-FLAG antibody (Cell Signaling; 1:400) were used. Corresponding secondary antibodies were donkey anti-mouse AlexaFluor647 (Invitrogen, 1:1000) and donkey anti-rabbit AlexFluor594 (Invitrogen, 1:1000) antibodies. Flow cytometry analyses were performed on AccuriC6 flow cytometer (BD Biosciences), and FACS on FACSAria II (BD Biosciences). Flow analyses were based at least on 200,000 cells, and each test was made at least in triplicate. For all experiments, a negative control with cells processed without primary antibody was used. Sorted cells (Shh+ and Shh− cells) were collected on fresh media, and seeded on culture plates or freezed at −80° C. according to further analyses. Flow cytometry analysis was performed without membrane permeabilization prior to labeling the cells, unless otherwise indicated (e.g., FIG. 1D). Cisplatin was purchased from Sigma, and freshly reconstituted in PBS (2 g/1). Docetaxel was purchased from Tocris Bioscience, reconstituted in DMSO (5 g/1 stock dilution at −20° C.; further dilution in fresh culture medium) for in vitro assays, or reconstituted in ethanol/polysorbate 80 (1:1; 5 g/1 stock dilution at −20° C.; further dilution in PBS) for in vivo assays. GDC0449 was purchased from Selleck Chemicals, and reconstituted in DMSO (30 mM stock dilution). Shh human recombinant protein was obtained from EBioscience, and used at 1200 ng/ml. The mouse Shh-C-terminal antibody (mentioned above) was used for flow cytometry and FACS (1:40). The secondary antibody was a donkey anti-mouse FITC-linked antibody (ab97029, 1:100, Abcam). For cell analysis after treatment assays (chemotherapy or GDC0449), a marker for dead cells (SytoxRed®, Invitrogen) was also used. For fresh human samples, an anti-CD45 APC-linked antibody (ab28106, 1:100, Abcam) was added, and a marker for dead cells (SytoxRed®, Invitrogen). For staining of stable transfected cell lines, a mouse anti-HA antibody (Abcam, 1:100) and a rabbit anti-FLAG antibody (Cell Signaling; 1:400) were used. Corresponding secondary antibodies were donkey anti-mouse AlexaFluor647 (Invitrogen, 1:1 000) and donkey anti-rabbit AlexFluor594 (Invitrogen, 1:1 000). Flow cytometry analyses were performed on an AccuriC6 flow cytometer (BD Biosciences), and FACS on a FACSAria II (BD Biosciences). […]

Experiment [2] deals with A549 cells. The experiment is described as follows: Proliferation (MTS) and migration/wound healing assay on A549 cells. Format: cell-based, human. The settings on record: GDC0449.
Method: Proliferation assay was performed by MTS assay (CellTiter 96, Promega), according to manufacturer instructions. […] Migration assay was performed by wound healing assay. Monolayers of cells were: cultured, scratched, treated with media containing proteins and/or drugs at different concentrations: Shh protein, DMSO, and GDC0449, and recorded 0 and 24, 72 and 96 hours after treatment. MTS proliferation assays were performed (CellTiterGlo 96, Promega) according to the manufacturer's instructions. […] Wound healing assays were performed to study cell migration. Monolayers of cells were cultured, scratched, treated with media containing proteins and/or drugs at different concentrations: Shh protein, DMSO, and GDC0449-recorded at 0, 24, 72 and 96 hours after treatment.
Experiment [3] concerns most chemo-resistant NSCLC cell lines. The settings on record: previous study; cited from earlier work.
In experiment [4] the test system is Shh+ cells in A549 xenografts. The experiment is described as follows: Shh rate in A549 xenografts of drug-treated nude mice. It is filed as in vivo. The method, then: For xenograft formation, female nude mice, 5 to 10 weeks old, were injected subcutaneously (SC) with 10 million A549 cells in the dorsal area in a volume of […]. For SC inoculation of sorted cells, 1,500 cells of A549 Shh+ or Shh− cells were injected in a volume of […]. For intra-veinous injection of sorted cells, 1,000 cells of A549 Shh+ or Shh− cells were injected in the tail vein. For the in vivo treatment assay, after xenograft formation, animals were injected intravenously with cisplatin (10 mg/kg weekly), docetaxel (10 mg/kg twice a week) or vehicle, and intraperitoneally with GDC0449 (20 mg/kg daily) or vehicle. Each group consisted in 4-5 mice. Tumor size was determined twice a week, and tumor volumes were calculated using width (x) and length (y) (x^2y/2, where x<y). Tumors were collected after mice euthanasia, and cell dissociation was performed as for fresh human samples (cf supra). Flow cytometry and FACS were done as described supra. All animals were cared in accord with University of California San Francisco (UCSF) guidelines.
For xenograft formation, 5-10 week-old female nude mice, were injected subcutaneously (SC) with 10 million A549 cells in the dorsal area in a volume of 100 μl. […] Tumor size was determined twice a week, and tumor volumes were calculated using width (x) and length (y) (x^2y/2, where x<y). […]

Entries after “also recorded” stand apart in the source; their conditions may differ.

These results are taken from patent publication US11479601B2, “Antibodies specific to Sonic Hedgehog and method of use thereof” (The Regents of the University of California, priority 2016, dated 2022).

Method for Shh gene expression: RNA from unsorted cells was extracted with Qiagen Rneasy® Minikit (Quiagen), according to manufacturer instructions. RNA from sorted cells was extracted with Arcturus PicoPure RNA Isolation Kit (Life technologies). cDNA was then synthesized with iScript cDNA Synthesis Kit (Bio-Rad), according to manufacturer instructions. Commercial primers for Shh gene were obtained from Origen. Quantitative PCR was performed on Applied Biosystems' 7900HT Fast Real-Time PCR System, with triplicate for each gene analysis. Gene expression analysis was calculated with deltaCT method, with normalization with endogenous control (18s gene) (normalized gene expression level=2^−deltaCT(test gene)−deltaCT(18s)). For ddPCR, droplets creation, PCR and results analysis were performed according to manufacturer instructions (BioRad, QX100 ddPCR System, Quantasoft software). Results of ddPCR were expressed as FAM concentrations (copies/μl). RNA from unsorted cells was extracted with Qiagen's RNeasy Mini kit (Qiagen) according to the manufacturer's instructions. […] Quantitative RT-PCR (qRT-PCR) was performed on an Applied Biosystems 7900HT Fast Real-Time PCR System, in triplicate for each sample. Gene expression analysis was calculated with the delta-deltaCT method normalized to an endogenous control (18S gene). […] Results of ddPCR were expressed as FAM concentrations (copies/0).

As to `CS(=O)(=O)c1ccc(C(=O)Nc2ccc(Cl)c(-c3ccccn3)c2)c(Cl)c1` [GDC0449], the “response rate, PFS or OS” value with advanced-stage SCLC is on record as “No effect”. The “Shh gene expression (qPCR)” value in the experiment with Shh gene expression is “dramatic decrease”. For the same molecule, the “tumor formation from pre-treated cells” value in the experiment with A549 cells [1] is “completely inhibited”. The “Shh rate post-chemotherapy combined with GDC0449 compared to chemotherapy alone” value with Shh+ cells (A549) (A549 cells, cisplatin or docetaxel plus GDC0449 40 μM) is “significant decrease; also recorded: decreased significantly”. For the same molecule, the “Shh+ cells in pre-inoculated A549 cells” value in the experiment on Shh+ cells (A549) (GDC0449 40 μM, day 3) was 0%. Besides, the “cell proliferation and migration” value in the experiment with A549 cells [2] was “inhibition of cell proliferation and migration”. In experiment [3], the “effect with cisplatin in vitro” value is “synergistic effect”. In addition, the “Shh rate in A549 xenografts, sequential assay” value in experiment [4] (cisplatin 10 mg/kg IV weekly, then GDC0449 20 mg/kg IP daily) is listed as “significant reduction”. Also, the “Shh rate in A549 xenografts, combination treatment compared to chemotherapy alone” value in experiment [4] (docetaxel 10 mg/kg twice a week plus GDC0449 20 mg/kg IP daily) is recorded as “significant reduction”.
